Assay results as given in US5292742A, “Angiotensin II receptor blocking 2,3,6 substituted quinazolinones” (American Cyanamid Company, priority 1993, dated 1994).
Values joined by “and” are separate entries in the source; they are usually repeats but may differ in a detail not shown here. Equal values may be shown once.

System: angiotensin II (AII) vasopressor response
Test: AII challenge: inhibition of angiotensin II vasopressor response in conscious spontaneously hypertensive rats
Format: in vivo, rat (Okamoto-Aoki SHR)
Settings: 3 mg/kg IV; for % Inhibition (angiotensin blockage) of AII vasopressor response / Average Change (increase in systolic blood pressure after AII): SHR n = 2; for Change (increase in systolic blood pressure after AII), individual rat / Response After AII (systolic blood pressure), individual rat / Control Before AII (systolic blood pressure), individual rat: individual SHR
Excerpt: By administering a compound of this invention to a rat, and then challenging with angiotensin II, a blockage of the vasopressor response is realized.
Conscious Male Okamoto-Aoki SHR, 16-20 weeks old, weighing approximately 330 g are purchased from Charles River Labs (Wilmington, Mass.). Conscious rats are restrained in a supine position with elastic tape. The area at the base of the tail is locally anesthetized by subcutaneous infiltration with 2% procaine. The ventral caudal artery and vein are isolated, and a cannula made of polyethylene (PE) 10-20 tubing (fused together by heat) is passed into the lower abdominal aorta and vena cava, respectively. The cannula is secured, heparinized (1,000 I.U./ml), sealed and the wound is closed. The animals are placed in plastio restraininq cages in an upright position. The cannula is attached to a Statham P23Db pressure transducer, and pulsatile blood pressure is recorded to 10-15 minutes with a Gould Brush recorder. (Chan et al., (Drug Development Res., 18:75-94, 1989).
Angiotensin II (human sequence, Sigma Chem. Co., St. Louis, Mo.) of 0.05 and 0.1 mcg/kg i.v. is injected into all rats (predosing response). Then a test compound, vehicle or a known angiotensin II antagonist is administered i.v., i.p. or orally to each set of rats. The two doses of angiotensin II are given to each rat again at 30, 60, 90, 120, 180, 240 and 300 minutes post dosing the compound or vehicle. The vasopressor response of angiotensin II is measured for the increase in systolic blood pressure in mmHg. The percentage of antagonism or blockade of the vasopressor response of angiotensin II by a compound is calculated using the vasopressor response (increase in systolic blood pressure) of angiotensin II of each rat predosing the compound as 100%. A compound is considered active if at 30 mg/kg i.v. it antagonized at least 50% of the response.

[1] = AII 0.05 mcg/kg IV, 30 min post dose
[2] = AII 0.05 mcg/kg IV, 60 min post dose
[3] = AII 0.05 mcg/kg IV, 90 min post dose
[4] = AII 0.05 mcg/kg IV, 120 min post dose
[5] = AII 0.05 mcg/kg IV, 180 min post dose
[6] = AII 0.05 mcg/kg IV, 240 min post dose
[7] = AII 0.05 mcg/kg IV, 300 min post dose
[8] = AII 0.1 mcg/kg IV, 30 min post dose
[9] = AII 0.1 mcg/kg IV, 60 min post dose
[10] = AII 0.1 mcg/kg IV, 90 min post dose
[11] = AII 0.1 mcg/kg IV, 120 min post dose
[12] = AII 0.1 mcg/kg IV, 180 min post dose
[13] = AII 0.1 mcg/kg IV, 240 min post dose
[14] = AII 0.1 mcg/kg IV, 300 min post dose

Question: Which results are given for `CCCCc1nc2ccc(C3=NN4CCCC4C3)cc2c(=O)n1Cc1ccc(-c2ccccc2-c2nnn[nH]2)cc1` (stereo not shown) [Example 10, 2-Butyl-6-(3a,4,5,6-tetrahydro-3H-pyrrolo[1,2-b]-pyrazol-2-yl)-3-[[2'-(1H-tetrazol-5-yl)[1,1'-biphenyl]-4-yl]methyl]-4(3H)-quinazolinone]?
Answer: % Inhibition (angiotensin blockage) of AII vasopressor response [1]: 61%; Average Change (increase in systolic blood pressure after AII) [1]: 13.5 mmHg; Change (increase in systolic blood pressure after AII), individual rat [1]: 12 mmHg and 15 mmHg; % Inhibition (angiotensin blockage) of AII vasopressor response [2]: 7%; Average Change (increase in systolic blood pressure after AII) [2]: 32.5 mmHg; Change (increase in systolic blood pressure after AII), individual rat [2]: 30 mmHg and 35 mmHg; % Inhibition (angiotensin blockage) of AII vasopressor response [3]: 43%; Average Change (increase in systolic blood pressure after AII) [3]: 20 mmHg; Change (increase in systolic blood pressure after AII), individual rat [3]: 30 mmHg and 10 mmHg; % Inhibition (angiotensin blockage) of AII vasopressor response [4]: 43%; Average Change (increase in systolic blood pressure after AII) [4]: 20 mmHg; Change (increase in systolic blood pressure after AII), individual rat [4]: 25 mmHg and 15 mmHg; % Inhibition (angiotensin blockage) of AII vasopressor response [5]: 36%; Average Change (increase in systolic blood pressure after AII) [5]: 22.5 mmHg; Change (increase in systolic blood pressure after AII), individual rat [5]: 25 mmHg and 20 mmHg; % Inhibition (angiotensin blockage) of AII vasopressor response [6]: 50%; Average Change (increase in systolic blood pressure after AII) [6]: 17.5 mmHg; Change (increase in systolic blood pressure after AII), individual rat [6]: 20 mmHg and 15 mmHg; % Inhibition (angiotensin blockage) of AII vasopressor response [7]: 7%; Average Change (increase in systolic blood pressure after AII) [7]: 32.5 mmHg; Change (increase in systolic blood pressure after AII), individual rat [7]: 35 mmHg and 30 mmHg; % Inhibition (angiotensin blockage) of AII vasopressor response [8]: 55%; Average Change (increase in systolic blood pressure after AII) [8]: 22.5 mmHg; Change (increase in systolic blood pressure after AII), individual rat [8]: 20 mmHg and 25 mmHg; % Inhibition (angiotensin blockage) of AII vasopressor response [9]: 55%; Average Change (increase in systolic blood pressure after AII) [9]: 22.5 mmHg; Change (increase in systolic blood pressure after AII), individual rat [9]: 25 mmHg and 20 mmHg; % Inhibition (angiotensin blockage) of AII vasopressor response [10]: 50%; Average Change (increase in systolic blood pressure after AII) [10]: 25 mmHg; Change (increase in systolic blood pressure after AII), individual rat [10]: 25 mmHg; % Inhibition (angiotensin blockage) of AII vasopressor response [11]: 50%; Average Change (increase in systolic blood pressure after AII) [11]: 25 mmHg; Change (increase in systolic blood pressure after AII), individual rat [11]: 30 mmHg and 20 mmHg; % Inhibition (angiotensin blockage) of AII vasopressor response [12]: 45%; Average Change (increase in systolic blood pressure after AII) [12]: 27.5 mmHg; Change (increase in systolic blood pressure after AII), individual rat [12]: 30 mmHg and 25 mmHg; % Inhibition (angiotensin blockage) of AII vasopressor response [13]: 50%; Average Change (increase in systolic blood pressure after AII) [13]: 25 mmHg; Change (increase in systolic blood pressure after AII), individual rat [13]: 25 mmHg; % Inhibition (angiotensin blockage) of AII vasopressor response [14]: 30%; Average Change (increase in systolic blood pressure after AII) [14]: 35 mmHg; Change (increase in systolic blood pressure after AII), individual rat [14]: 45 mmHg and 25 mmHg; Response After AII (systolic blood pressure), individual rat (after AII 0.05 mcg/kg IV, 30 min post dose): 242 mmHg and 255 mmHg; Response After AII (systolic blood pressure), individual rat (after AII 0.05 mcg/kg IV, 60 min post dose): 255 mmHg and 270 mmHg; Response After AII (systolic blood pressure), individual rat (after AII 0.05 mcg/kg IV, 90 min post dose): 255 mmHg and 250 mmHg; Response After AII (systolic blood pressure), individual rat (after AII 0.05 mcg/kg IV, 120 min post dose): 250 mmHg and 230 mmHg; Response After AII (systolic blood pressure), individual rat (after AII 0.05 mcg/kg IV, 180 min post dose): 235 mmHg; Response After AII (systolic blood pressure), individual rat (after AII 0.05 mcg/kg IV, 240 min post dose): 230 mmHg and 235 mmHg; Response After AII (systolic blood pressure), individual rat (after AII 0.05 mcg/kg IV, 300 min post dose): 250 mmHg and 245 mmHg; Response After AII (systolic blood pressure), individual rat (after AII 0.1 mcg/kg IV, 30 min post dose): 250 mmHg and 260 mmHg; Response After AII (systolic blood pressure), individual rat (after AII 0.1 mcg/kg IV, 60 min post dose): 255 mmHg and 260 mmHg; Response After AII (systolic blood pressure), individual rat (after AII 0.1 mcg/kg IV, 90 min post dose): 265 mmHg and 260 mmHg; Response After AII (systolic blood pressure), individual rat (after AII 0.1 mcg/kg IV, 120 min post dose): 265 mmHg and 240 mmHg; Response After AII (systolic blood pressure), individual rat (after AII 0.1 mcg/kg IV, 180 min post dose): 245 mmHg and 250 mmHg; Response After AII (systolic blood pressure), individual rat (after AII 0.1 mcg/kg IV, 240 min post dose): 250 mmHg and 240 mmHg; Response After AII (systolic blood pressure), individual rat (after AII 0.1 mcg/kg IV, 300 min post dose): 255 mmHg and 250 mmHg; Control Before AII (systolic blood pressure), individual rat (before AII 0.05 mcg/kg IV, 30 min post dose): 230 mmHg and 240 mmHg; Control Before AII (systolic blood pressure), individual rat (before AII 0.05 mcg/kg IV, 60 min post dose): 225 mmHg and 235 mmHg; Control Before AII (systolic blood pressure), individual rat (before AII 0.05 mcg/kg IV, 90 min post dose): 225 mmHg and 240 mmHg; Control Before AII (systolic blood pressure), individual rat (before AII 0.05 mcg/kg IV, 120 min post dose): 225 mmHg and 215 mmHg; Control Before AII (systolic blood pressure), individual rat (before AII 0.05 mcg/kg IV, 180 min post dose): 210 mmHg and 215 mmHg; Control Before AII (systolic blood pressure), individual rat (before AII 0.05 mcg/kg IV, 240 min post dose): 210 mmHg and 220 mmHg; Control Before AII (systolic blood pressure), individual rat (before AII 0.05 mcg/kg IV, 300 min post dose): 215 mmHg; Control Before AII (systolic blood pressure), individual rat (before AII 0.1 mcg/kg IV, 30 min post dose): 230 mmHg and 235 mmHg; Control Before AII (systolic blood pressure), individual rat (before AII 0.1 mcg/kg IV, 60 min post dose): 230 mmHg and 240 mmHg; Control Before AII (systolic blood pressure), individual rat (before AII 0.1 mcg/kg IV, 90 min post dose): 240 mmHg and 235 mmHg; Control Before AII (systolic blood pressure), individual rat (before AII 0.1 mcg/kg IV, 120 min post dose): 235 mmHg and 220 mmHg; Control Before AII (systolic blood pressure), individual rat (before AII 0.1 mcg/kg IV, 180 min post dose): 215 mmHg and 225 mmHg; Control Before AII (systolic blood pressure), individual rat (before AII 0.1 mcg/kg IV, 240 min post dose): 225 mmHg and 215 mmHg; Control Before AII (systolic blood pressure), individual rat (before AII 0.1 mcg/kg IV, 300 min post dose): 210 mmHg and 225 mmHg
